Source: patent publication US20240175865A1, “IMPROVED PROCESSES FOR RATIONALLY-DESIGNING AND PRODUCING BIOMOLECULES” (priority 2020, published 2024)
Read-outs that look alike come from different tables or passages of the source.

Experiments:
[1] = molecular target: T1, Escherichia coli EF-Tu, unmodified (SEQ ID NO: 3) (Escherichia coli, UniProt P0CE47); experiment: Nucleotide dissociation rate, stopped-flow, unmodified EF-Tu; type: binding; conditions: 20° C., TAKM7
T1 construct: His6 tag (C-terminal SHHHHHH in the listing) (C)

[2] = molecular target: T2, Streptococcus pneumoniae MalX variant T243C, MDCC conjugate (parent MalX SEQ ID NO: 1) (Streptococcus pneumoniae serotype 4, UniProt P59213, I417L/S91N/T250C); experiment: biochemical; type: binding
T2 construct: made in house; host or cells: Escherichia coli BL21(DE3) gold

[3] = molecular target: Streptococcus pneumoniae MalX variant A174C, MDCC conjugate (parent MalX SEQ ID NO: 1) (Streptococcus pneumoniae, UniProt P59213, A181C); type: binding; conditions: 1 μM biosensor
[4] = molecular target: Streptococcus pneumoniae MalX variant E312C, MDCC conjugate (parent MalX SEQ ID NO: 1) (Streptococcus pneumoniae, UniProt P59213, E319C); type: binding; conditions: 1 μM biosensor
[5] = molecular target: Streptococcus pneumoniae MalX, unlabeled protein (SEQ ID NO: 1); conditions: unlabeled protein (ABBOTT et al. 2010); read-out: measured affinity (KD); cited from earlier work
[6] = tested on: Yersinia enterocolitica TogB, unmodified protein (SEQ ID NO: 2); conditions: isothermal titration calorimetry; cited from earlier work
[7] = tested on: Yersinia enterocolitica TogB, unmodified protein (SEQ ID NO: 2); conditions: UV-difference spectroscopy; cited from earlier work
[8] = molecular target: T2, Streptococcus pneumoniae MalX variant T243C, MDCC conjugate (parent MalX SEQ ID NO: 1); type: binding; conditions: 1 μM biosensor, 20 μM maltose

With `Nc1nc2c(ncn2[C@@H]2O[C@H](COP(=O)(O)OP(=O)(O)O)[C@@H](O)[C@H]2O)c(=O)[nH]1` [GDP, guanosine diphosphate] the koff ([1]; mantGDP complex mixed with excess GTP/GDP, read-out: GDP Dissociation Rate Koff) was 0.002 ± 0.001 s⁻¹.

For `OC[C@H]1O[C@H](O[C@H]2[C@H](O)[C@@H](O)[C@@H](O[C@H]3[C@H](O)[C@@H](O)C(O)O[C@@H]3CO)O[C@@H]2CO)[C@H](O)[C@@H](O)[C@@H]1O` (stereo partly shown) [M3, Maltotriose], the Kd [2] was 0.6 ± 0.2 µM, the “fluorescence change upon binding M3” value ([3]; 20 μM M3) was “did not show a fluorescence change” and the “fluorescence change upon binding M3” value ([4]; 20 μM M3) was “did not show a fluorescence change”. For the same compound, the Kd [5] was 0.8 ± 0.125 µM.

For `O=C(O)[C@H]1O[C@H](O[C@@H]2[C@H](O)[C@@H](O)C(O)O[C@@H]2C(=O)O)[C@H](O)[C@@H](O)[C@H]1O` (stereo partly shown) [digalUA, digalacturonic acid], the Kd [6] is listed as 16 ± 2 µM and the Kd [7] is listed as 11.8 ± 0.5 µM.

For `O=C(O)C1=C[C@H](O)[C@@H](O)[C@@H](O[C@@H]2[C@H](O)[C@@H](O)C(O)O[C@@H]2C(=O)O)O1` (stereo partly shown) [unsatdigalUA, 4,5-unsaturated digalacturonic acid], the Kd [6] is listed as 5 ± 1 µM and the Kd [7] is listed as 3.2 ± 0.1 µM.

Work on `Nc1nc2c(ncn2[C@@H]2O[C@H](COP(=O)(O)OP(=O)(O)OP(=O)(O)O)[C@@H](O)[C@H]2O)c(=O)[nH]1` [GTP, guanosine triphosphate] yielded a koff ([1]; mantGTP complex mixed with excess GTP/GDP, read-out: GTP Dissociation Rate koff) of 0.04 ± 0.01 s⁻¹.

With `OC[C@H]1O[C@H](O[C@H]2[C@H](O)[C@@H](O)C(O)O[C@@H]2CO)[C@H](O)[C@@H](O)[C@@H]1O` (stereo partly shown) [maltose, Maltose] the “fluorescence change in presence of non-specific ligand (maltose)” value ([3]; 20 μM maltose) was “little to no fluorescence change”, the “fluorescence change in presence of non-specific ligand (maltose)” value [8] was “little to no fluorescence change” and the “fluorescence change in presence of non-specific ligand (maltose)” value ([4]; 20 μM maltose) was “little to no fluorescence change”.
